Results on one molecule are retold here after patent US20250144107A1, “USE OF A PIKFYVE INHIBITOR IN COMBINATION WITH IMMUNOTHERAPY” (The Regents of the University of Michigan, priority 2023, published 2025).

The subject of series [1] is tumor infiltrating DCs in B16F10 tumors. In words: Tumor infiltrating DCs in B16F10 tumors of PIKfyve KO or WT mice. It is filed as in vivo. Particulars: for percentage of cDC1s: 30 mg/kg daily. The protocol: FIG. 15E is a box and whisker plot of the XCR1 median fluorescent intensity by % cDC1 subset in B16F10 tumor model treated with vehicle or apilimod, 30 mg/kg daily.
FIG. 15F is a series of three box and whisker plot of the XCR1 median fluorescent intensity by all DCs, cDC1 or cDC2 subset in PIKfyve KO mice or WT mice treated with vehicle or apilimod, 30 mg/kg daily.
FIG. 23F is a box and whisker plot of the % cDC2 of all DC cells in PIKfyve KO mice or WT mice treated with vehicle or apilimod, 30 mg/kg daily.
FIG. 23G is a series of three box and whisker plots of the SIRP1α median fluorescent intensity by all DC, cDC1 or cDC2 subset in PIKfyve KO mice or WT mice treated with vehicle or apilimod, 30 mg/kg daily.

The conditions of series [2]: reported, Ikonomov et al. 2019; cited from earlier work.

Take `Cc1cccc(/C=N/Nc2cc(N3CCOCC3)nc(OCCc3ccccn3)n2)c1` [apilimod, N-[(E)-(3-methylphenyl)methylideneamino]-6-morpholin-4-yl-2-(2-pyridin-2-ylethoxy)pyrimidin-4-amine]: the “percentage of cDC1s” value in series [1] (KO mice) is reported as “no additional increase”; in series [1] (WT mice), “increased”. The “total surface XCR1 expression, differences between groups compared with cDC1 percentage” value in series [1] (WT and KO mice) was “the same”. Further, the “percentage of cDC2s or total surface SIRP1α expression” value in series [1] (between any groups) is “no changes”. Further, in series [2], the stability result is reported as “instability”.
